Test systems include A549; SK-OV-3; MDA-MB-231; HCT-116; SF-268; 786-0; RPMI-8226; SF-295; CAKI-1; SK-MEL-5; RXF 393; OVCAR-5; HT-29; NCI-H23; SW-620; SN12C; MDA-MB-435; MCF7; NCI-H226; UO-31.
What all share (assay): growth of human tumour cells (NCI), 48 h

Here are results for four compounds from ChEMBL document CHEMBL1201862, “PubChem BioAssay data set” (2004).

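Grown in 96-well plates, cells were treated for 48 hours with each compound at five concentrations. Insufficient inhibition: endpoint recorded as highest concentration tested. GI50 = concentration required for 50% inhibition of growth.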 Active and inactive are the calls of the source. Cut-off read from the data, not from the text of the source: active = GI50 up to about 1.1 µM and inactive = higher.

Regarding `N=C(N)SCc1cccc(-c2nc3ccccc3c(=O)o2)c1`, the GI50 in the assay on A549, in the assay with SK-OV-3, with MDA-MB-231, in the assay with HCT-116, in the assay with SF-268 and in the assay with 786-0 was > 100 µM (inactive) in each case. Further, the GI50 with RPMI-8226, with SF-295, in the assay on CAKI-1, with SK-MEL-5, with RXF 393 and in the assay with OVCAR-5 was > 100 µM (inactive) in each case. Further, the GI50 with HT-29, with NCI-H23, in the assay with SW-620, in the assay with SN12C, in the assay with MDA-MB-435 and in the assay with MCF7 was > 100 µM (inactive) in each case. The GI50 in the assay on NCI-H226 and in the assay with UO-31 was > 100 µM (inactive) in each case.
On to `Cc1cc2c(c(/C=N/Cc3ccccc3)c1)OC1(C=C2)Oc2ccccc2C(=O)N1C` (stereo not given), for which the GI50 in the assay with A549 is 29.5 µM (inactive); with SK-OV-3, 37.5 µM (inactive); with MDA-MB-231, 27.5 µM (inactive); in the assay on HCT-116, 21 µM (inactive); in the assay with SF-268 it was 21.8 µM (inactive); in the assay with 786-0 it was 29.4 µM (inactive). Besides, the GI50 was 12.1 µM (inactive) in the assay with RPMI-8226; 29.6 µM (inactive) in the assay on SF-295; 16.6 µM (inactive) with CAKI-1; 19.9 µM (inactive) in the assay with SK-MEL-5; 20 µM (inactive) in the assay with RXF 393; 21.4 µM (inactive) with OVCAR-5. For the same compound, the GI50 in the assay with HT-29 is 21.6 µM (inactive); in the assay on NCI-H23 it was 24.8 µM (inactive); in the assay with SW-620 it was 33.6 µM (inactive); with SN12C, 27.7 µM (inactive); in the assay with MDA-MB-435, 28.7 µM (inactive); in the assay on MCF7, 28.9 µM (inactive). Moreover, the GI50 is 16 µM (inactive) with NCI-H226 and 14 µM (inactive) in the assay on UO-31.
For the compound `COc1nc(N)c(NC2OC(CO)C(O)C2O)c(=O)[nH]1` (stereo not given), the GI50 with A549, with SK-OV-3, in the assay on MDA-MB-231, in the assay on HCT-116, in the assay on SF-268 and with 786-0 was > 100 µM (inactive) in each case. Moreover, the GI50 in the assay with RPMI-8226, in the assay on SF-295, in the assay on CAKI-1, with SK-MEL-5, with RXF 393 and with OVCAR-5 was > 100 µM (inactive) in each case. Besides, the GI50 in the assay with HT-29, with NCI-H23, in the assay on SW-620, in the assay on SN12C, in the assay with MDA-MB-435 and with MCF7 was > 100 µM (inactive) throughout. The GI50 with NCI-H226 and with UO-31 was > 100 µM (inactive) each time.
As to `Cc1cc(NC(=O)NC(=O)c2ccccc2N)ccc1Oc1ncc(Br)cn1`, the GI50 in the assay on A549 is 0.0112 µM (active); in the assay on SK-OV-3, 0.0103 µM (active); in the assay with MDA-MB-231 it was < 0.01 µM (active); in the assay with HCT-116 it was < 0.0124 µM (active); with SF-268, 0.0163 µM (active); in the assay on 786-0, < 0.0119 µM (active). In addition, the GI50 with RPMI-8226 is 0.025 µM (active); with SF-295, < 0.01 µM (active); in the assay on CAKI-1, < 0.01 µM (active); with SK-MEL-5, < 0.01 µM (active); in the assay on RXF 393, 0.0244 µM (active); with OVCAR-5 it was 0.0396 µM (active). Also, the GI50 in the assay with HT-29 was < 0.0103 µM (active); in the assay with NCI-H23, 0.0125 µM (active); with SW-620, < 0.0103 µM (active); in the assay on SN12C it was 0.0583 µM (active); in the assay on MDA-MB-435 it was < 0.01 µM (active); in the assay on MCF7, < 0.01 µM (active). In addition, the GI50 in the assay with NCI-H226 is 0.0702 µM (active); with UO-31, 0.0535 µM (active).
